US8440697B2, “Treatment of heart failure” (Heart Metabolics Limited, priority 2007, dated 2013)

Tests used:
symptomatic HCM patients [1] = assay: Symptomatic status assessment (NYHA class, Minnesota Living with heart failure questionnaire) in HCM study; type: in vivo, human
Text: (§1) The study was approved by the South Birmingham Research Ethics Committee and the investigation conforms with the principles outlined in the Declaration of Helsinki All study participants provided written informed consent. The study was a randomized, double blind, placebo-controlled parallel-group design of minimum 3 months duration. FIG. 3 represents a flow chart of the study. The pre-defined primary end point was peak oxygen consumption (peak VO2). Pre-defined secondary end points were symptomatic status, resting myocardial energetics (PCr/γ-ATP ratio) and diastolic function at rest and during exercise (nTTPF). 33 controls of similar age and gender distribution were recruited for comparison with baseline data of HCM patients. All controls had no history or symptoms of any cardiovascular disease with normal ECG and echocardiogram (LVEF≧55%).
(§2) Patients were recruited from dedicated cardiomyopathy clinics at The Heart Hospital, University College London Hospitals, London and Queen Elizabeth Hospital, Birmingham, UK between 2006 and 2008. Inclusion criteria were 18 to 80 years old symptomatic HCM patients (predominant symptom breathlessness) in sinus rhythm with reduced peak VO2 (<75% of predicted for age and gender) and no significant LVOT obstruction at rest (gradient<30 mmHg). Exclusion criteria were presence of epicardial coronary artery disease, abnormal liver function test, concomitant use of amiodarone or selective serotonin reuptake inhibitors (due to potential drug interactions with perhexiline), peripheral neuropathy and women of childbearing potential. Diabetic patients were also excluded to maintain the blindness of the study as Perhexiline may lead to a reduction in plasma glucose in such patients necessitating a reduction in anti-diabetic therapy. 46 consecutive consenting patients who met these entry criteria were recruited into the study.
All HCM patients filled in Minnesota Living with heart failure questionnaire and were also assessed for NHYA class.
(§3) Following baseline studies, patients were randomized in a double-blind fashion to receive either perhexiline (n=25) or placebo (n=21) 100 mg OD. Serum perhexiline levels were obtained at 1 and 4 weeks after initiation of the drug. Dose adjustments were advised by an unblinded physician according to serum level to achieve therapeutic level and to avoid drug toxicity. Identical dosage adjustments were also made for randomly allocated placebo-treated patients by the unblinded observer to ensure that blinding of the investigators was maintained. At the end of study, patients were re-evaluated as described earlier.
Data were analyzed using SPSS ver. 15.0 for Window and Microsoft Office Excel 2007, and expressed as Mean±Standard Deviation (SD). Comparison of continuous variables between Perhexiline and Placebo baseline data were determined by unpaired Student's t-test (2-tail) if variables were normally distributed and the Mann-Whitney U-test if the data were non-normally distributed. ANCOVA with baseline values as covariates was performed to test for the significance of differences in the perhexiline versus placebo group after treatment. For the primary end point, the sample size required to detect a change in peak Vo2 of 3 ml/kg/min versus placebo group with a power of 90% and probability of 5% is 44. 30 patients will be required to identify a 5% change in cardiac PCr/ATP ratio with a power of 90% and a p value of <0.05. 40 patients will be required to detect a change ≧25% in nTTPF with power of 0.99 with probability of 5%. Therefore, we aimed to study 50 patients including the drop-outs, 32 of them will take part in the MRS study.

symptomatic HCM patients [2] = assay: Side effects and deaths in HCM study; type: in vivo
Text: as §1, with “(nTTPF).” for “(nTTPF). 33 controls of similar age and gender distribution were recruited for comparison with baseline data of HCM patients. All controls had no history or symptoms of any cardiovascular disease with normal ECG and echocardiogram (LVEF≧55%).”
Diabetic patients were also excluded to maintain the blindness of the study as Perhexiline may lead to a reduction in plasma glucose in such patients necessitating a reduction in anti-diabetic therapy. 46 consecutive consenting patients who met these entry criteria were recruited into the study.
as §3

symptomatic HCM patients [3] = assay: Radionuclide ventriculography, diastolic filling (nTTPF) at rest and during exercise in HCM study; type: in vivo, human
Text: as §1
Patients were recruited from dedicated cardiomyopathy clinics at The Heart Hospital, University College London Hospitals, London and Queen Elizabeth Hospital, Birmingham, UK between 2006 and 2008. Inclusion criteria were 18 to 80 years old symptomatic HCM patients (predominant symptom breathlessness) in sinus rhythm with reduced peak VO2 (<75% of predicted for age and gender) and no significant LVOT obstruction at rest (gradient<30 mmHg). […]
Diastolic filling were assessed by equilibrium R-wave gated blood pool scintigraphy using a standard technique at rest and during graded semi erect exercise on a cycle ergometer (Atherton J J, Moore T D, Lele S S et al. Diastolic ventricular interaction in chronic heart failure. Lancet 1997; 349 (9067):1720-1724; Lele S S, Macfarlane D, Morrison S, Thomson H, Khafagi F, Frenneaux M. Determinants of exercise capacity in patients with coronary artery disease and mild to moderate systolic dysfunction. Role of heart rate and diastolic filling abnormalities. Eur Heart J 1996; 17(2):204-212). Peak left ventricular filling rate in terms of end-diastolic count per second (EDC/s) and time to peak filling normalised for R—R interval (nTTPF) in milliseconds were measured at rest and during exercise (50% of heart rate reserve). […]
(§4) Following baseline studies, patients were randomized in a double-blind fashion to receive either perhexiline (n=25) or placebo (n=21) 100 mg OD. […] At the end of study, patients were re-evaluated as described earlier.
(§5) Data were analyzed using SPSS ver. 15.0 for Window and Microsoft Office Excel 2007, and expressed as Mean±Standard Deviation (SD). Comparison of continuous variables between Perhexiline and Placebo baseline data were determined by unpaired Student's t-test (2-tail) if variables were normally distributed and the Mann-Whitney U-test if the data were non-normally distributed. […]

symptomatic HCM patients [4] = assay: 31P cardiac magnetic resonance spectroscopy, resting myocardial energetics (PCr/γ-ATP ratio) in HCM study; type: in vivo, human
Text: as §1
Patients were recruited from dedicated cardiomyopathy clinics at The Heart Hospital, University College London Hospitals, London and Queen Elizabeth Hospital, Birmingham, UK between 2006 and 2008. […]
In vivo myocardial energetics were measured using a MRS at 3-Tesla Phillips Achieva 3T scanner (Shivu G N, Abozguia K, Phan T T, Ahmed I, Henning A, Frenneaux M. (31)P magnetic resonance spectroscopy to measure in vivo cardiac energetics in normal myocardium and hypertrophic cardiomyopathy: Experiences at 3T. Eur J Radiol 2008). A java magnetic resonance user interface v3.0 (jMRUI) was used for analysis (see Naressi A, Couturier C, Castang I, de Beer R, Graveron-Demilly D. Java-based graphical user interface for MRUI, a software package for quantitation of in vivo/medical magnetic resonance spectroscopy signals. Comput Biol Med 2001; 31(4):269-286)). […] Data were analyzed by an investigator who was blinded to the participants' clinical status. […]
as §4
Data were analyzed using SPSS ver. […]

symptomatic HCM patients [5] = assay: Cardiopulmonary exercise test (peak oxygen consumption), randomized double-blind placebo-controlled study in HCM; type: in vivo, human
Text: as §1, §2
This was performed using a Schiller CS-200 Ergo-Spiro exercise machine which was calibrated before every study. […]
as §4, §5

[6] = perhexiline group (n=25), during the first week of treatment

C1CCC(C(CC2CCCCN2)C2CCCCC2)CC1 (centres unmarked) [perhexiline, 2-(2,2-dicyclohexylethyl) piperidine]
NYHA score (of breathlessness), in words (symptomatic HCM patients [1]; FIG. 5E legend): falls (improves)
Minnesota living with heart failure questionnaire score, in words (symptomatic HCM patients [1]; FIG. 5F legend): falls (=improved quality of life)
Minnesota Living with heart failure questionnaire score after treatment (symptomatic HCM patients [1]; perhexiline group, after treatment, fall in score = improvement, p<0.001 vs placebo): 28±0.75
Minnesota Living with heart failure questionnaire score at baseline (symptomatic HCM patients [1]; perhexiline group, before treatment): 36.13±0.94
Patients with worsening in NYHA classification (symptomatic HCM patients [1]; perhexiline group, placebo 20 percent): 8%
Patients with improvements in NYHA classification (symptomatic HCM patients [1]; perhexiline group, placebo 30 percent): 67%
Side effects: dizziness (number of patients) (symptomatic HCM patients [2]; [6]): 2
Side effects: transient nausea (number of patients) (symptomatic HCM patients [2]; [6]): 3
Deaths during the study period (symptomatic HCM patients [2]; whole study, perhexiline and placebo groups): no deaths
Effect on nTTPF response to exercise, in words (symptomatic HCM patients [3]; FIG. 5D legend, p=0.03 vs placebo): normalises the response to similar to that seen in healthy controls
nTTPF at rest on therapy (symptomatic HCM patients [3]; perhexiline group, on therapy, at rest): 0.19 ± 0.003 s
nTTPF during exercise on therapy (symptomatic HCM patients [3]; perhexiline group, on therapy, exercise at 50% of heart rate reserve): 0.19 ± 0.004 s
nTTPF change rest to exercise on therapy (symptomatic HCM patients [3]; perhexiline group, on therapy, p=0.03 between perhexiline and placebo response): 0.00 ± 0.003 s
Effect on PCr/ATP ratio (energetic status of heart), in words (symptomatic HCM patients [4]; FIG. 5B legend, unchanged in placebo group): improves
PCr/γATP ratio after treatment (symptomatic HCM patients [4]; perhexiline group, resting, after treatment, p=0.003 vs placebo): 1.73±0.02
PCr/γATP ratio at baseline (symptomatic HCM patients [4]; perhexiline group, resting, before treatment, mean±SD): 1.27±0.02
Effect on peak VO2 (exercise capacity), in words (symptomatic HCM patients [5]; FIG. 5A legend, p=0.003 vs placebo): increases
Peak VO2 at baseline (symptomatic HCM patients [5]; perhexiline group (n=25), before treatment, mean±SD): 22.2 ± 0.2 mL/min/kg
Peak VO2 after treatment (symptomatic HCM patients [5]; perhexiline group, 100 mg OD titrated to serum level, minimum 3 months, p=0.003 vs placebo response): 24.29 ± 0.2 mL/min/kg
Increase in Peak VO2 after treatment (symptomatic HCM patients [5]; perhexiline group, after treatment vs baseline, placebo fell by -1.23, p=0.003): 2.09 mL/min/kg
